Measured values reported in patent publication US20240108702A1, “Use Of Naturally Occurring Cyclic Peptides For Treatment Of SARS-COV-2 Infection” (The University of Southern California, priority 2021, published 2024).
pIC50: −log10 of the molar value. Where a SMILES comes first, the peptide text is derived from it. Bridges are numbered along the chain shown (N, C = ends).

Assays:
[1] = Single-dose i.v. bolus PK study in mice; format: in vivo, CD-1 mice
Protocol: Mouse studies: All procedures and protocols involving the use of animals were reviewed and approved by the University of Southern California (USC) IACUC (protocol #20538). Briefly, male (31.7-37.7 g) and female (25.2-35.6 g) CD-1 mice (Charles River Laboratories) were administered a single 5 mg/kg i.v. bolus injection of Peptide 1 (SEQ ID NO. 1) into the lateral tail vein. A total of 24 mice were separated into six groups (n=2/sex/group), with each group assigned to a single, pre-determined time point. Blood samples were collected at 0.25, 1, 2, 4, 8, and 24 h post-dose via terminal cardiac puncture. The collected samples were centrifuged to separate the plasma and stored at −80° C. until analysis.
Bioanalytical analysis: Clarified plasma samples from mice were directly diluted into 5% formic acid/5% acetonitrile. Quantitative analysis of Peptide 1 (SEQ ID NO. 1) was performed by LC-MS/MS with reverse-phase liquid chromatography (XBridge™ BEH phenyl 3.5 μm 3×100 mm column, Waters #186003328) on an Acquity™ H-Class UPLC (Waters) coupled to a Xevo™ TQ-S tandem electrospray mass spectrometry running MassLynx™ V4.1 (Waters). Quantitative mass spectroscopy was performed by multiple-reaction monitoring transition 417.32>517.21, with the area under the curve determined by TargetLynx™ (Waters). A synthetic theta defensin-like peptide was used as an internal standard (IS). The lower limit of quantification (LLOQ) of the assay was 1 ng/mL. Intra- and inter-assay precision (percent coefficient of variation [CV]) was ≤3%, and intra and interassay accuracy (% relative error) was ≤5%. Plasma Peptide 1 (SEQ ID NO. 1) concentration analyses for rats and cynomolgus monkey studies were performed at MicroConstants (San Diego, CA) by HPLC using a Mac-Mod™ Analytical ACE C4 column. The mobile phase was nebulized using heated nitrogen in Z-Spray source/interface set to electrospray positive ionization mode, and the compound was detected using MS/MS (LLOQ=10.0 ng/mL). Details of the method are summarized in the MicroConstants method No. MN20038. Clarified plasma samples from a serially sampled vervet were quantified by ultra-performance liquid chromatography Waters Acquity H-Class UPLC. […] Peptide 1 (SEQ ID NO. 1) peak and mass confirmation was performed on post PDA eluent using a Micromass Quattro Ultima™ mass spectrometer with MassLynx™ 4.1 (Waters). The lower limit of quantitation (LLOQ) ranged from 10-30 ng/mL (determined by sample background) to an upper limit of 50 ug/mL. RTD-2 (10 ug/mL) was used as an internal standard. Intra- and interassay precision (% coefficient of variation [CV]) was ≤3%, and intra and interassay accuracy (% relative error) was ≤5%.
Pharmacokinetic analysis: Non-compartmental analysis (NCA) was performed using Phoenix WinNonlin™ (version 8.3.1, Certara USA, Inc.; Princeton NJ) to determine the PK parameters in mice, rats, cynomolgus monkeys, and the vervet. Nominal sampling times were used in the analysis, and data below the lower limit of quantification of the assay were excluded from the analysis. The maximum plasma concentration (Cmax) was determined from visual inspection of the data. In addition, the following parameters were calculated: terminal elimination rate constant (λz), area under the curve extrapolated to infinity (AUC0-∞), area under the curve to dosing interval (AUCτ), mean residence time (MRT), clearance (CL), and volume of distribution at steady state (Vss). AUC was calculated using the linear up, log down method, and the λz was calculated using up to the last four data points of the log-linear terminal phase of the concentration-time profile. Due to sparsely sampled data in mice and rats, the sparse sampling calculation methodology in Phoenix WinNonlin™ was used, which generated a single estimate without standard error for all parameters, except for Cmax. For rats and cynomolgus monkeys, all parameters were calculated using sampling times relative to the beginning of the i.v. infusion.

[2] = in vivo; settings: both, cynomolgus monkey, iv
[3] = molecular target: TMPRSS2 (Homo sapiens, UniProt O15393); assay: Cellular TMPRSS2 inhibition assay in Caco-2 cells; format: cell-based; design: using Caco-2 and Calu3 cells, both of which express surface TMPRSS2; endogenous in cells; host or cells: Caco-2 cells
Chain of TMPRSS2 (O15393 whole entry): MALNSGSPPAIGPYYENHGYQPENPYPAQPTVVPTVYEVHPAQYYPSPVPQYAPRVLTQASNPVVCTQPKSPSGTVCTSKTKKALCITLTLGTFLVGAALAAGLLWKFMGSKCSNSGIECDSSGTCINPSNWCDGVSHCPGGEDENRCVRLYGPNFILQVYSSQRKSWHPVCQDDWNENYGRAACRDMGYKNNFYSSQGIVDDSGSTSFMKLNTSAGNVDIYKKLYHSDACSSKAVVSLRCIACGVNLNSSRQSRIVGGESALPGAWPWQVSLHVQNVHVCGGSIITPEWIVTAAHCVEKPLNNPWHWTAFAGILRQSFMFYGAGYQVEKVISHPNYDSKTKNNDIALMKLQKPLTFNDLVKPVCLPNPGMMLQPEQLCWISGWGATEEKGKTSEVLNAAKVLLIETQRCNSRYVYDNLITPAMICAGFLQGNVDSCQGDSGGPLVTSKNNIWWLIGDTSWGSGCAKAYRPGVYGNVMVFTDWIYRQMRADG
Protocol: Caco-2 cells (1×10^5 per well) were incubated in 96 well plates with 0 to 50 μg/ml of the indicated peptide in the presence of a TMPRSS2 substrate (Boc-Leu-Gly-Arg-AMC) in 50 mM Tris-HCl, pH 7.4. Substrate conversion was monitored in a fluorescence plate reader for 2 hours and inhibition of enzyme activity was expressed relative to a solvent control.
TMPRSS2 inhibition assays. Peptides (0-50 μg/ml) were tested for their inhibitory activities against TMPRSS2 in cellular assays using Vero E6 cells, Caco-2 cells, or Calu-3 cells using standard conditions. TMPRSS2 activity was assayed in real time for 120 min by monitoring the cleavage of the TMPRSS2 substrate, Boc-Leu-Gly-Arg-AMC. Following the 2 h enzyme assay, cells were evaluated for viability using the CellTiter-Glo cellular toxicity assay.

[4] = Mouse model of LPS-induced acute lung injury (ALI), subcutaneous injection; settings: in vivo, sc
[5] = in vivo; settings: both, Sprague-Dawley, rat, iv
[6] = both sexes, CD-1, mouse, plasma, iv, single 5 mg/kg i.v. bolus

CC[C@H](C)[C@@H]1NC(=O)[C@@H]2CSSC[C@H](NC(=O)[C@H](CCCNC(=N)N)NC(=O)[C@@H]3CSSC[C@H](NC1=O)C(=O)N[C@@H]([C@@H](C)O)C(=O)N[C@@H](CCCNC(=N)N)C(=O)NCC(=O)N[C@@H](Cc1ccccc1)C(=O)N3)C(=O)N[C@@H](CC(C)C)C(=O)N[C@H]1CSSC[C@H](NC(=O)[C@H](C(C)C)NC(=O)CNC(=O)[C@H](CCCNC(=N)N)NC(=O)[C@H](CCCNC(=N)N)NC1=O)C(=O)N[C@@H](CCCNC(=N)N)C(=O)N2 [Peptide 1] (cyclo(GFCRCLCRRGVCRCICTR); disulfide 3-16, 5-14, 7-12)
AUC [1, 6]: 12300 ng·h/mL | AUC(0-inf) [1, 6]: 12500 ng·h/mL | MRT [1, 6]: 2.62 h | clearance [1, 6]: 6.67 mL/min/kg | Cmax ([1]; both sexes, CD-1, mouse, plasma, iv, single 5 mg/kg i.v. bolus, estimate (SE)): 8920 ng/mL | Vd ([1]; both sexes, CD-1, mouse, plasma, iv, single 5 mg/kg i.v. bolus, read-out: Vss): 1.05 L/kg | λz ([1]; single 5 mg/kg i.v. bolus): 0.114 h⁻¹ | elimination phase half-life ([1]; single i.v. bolus): 6.05 h | MTD at 7 days [2]: 15 mg/kg | NOAEL at 7 days ([2]; 15 mg/kg): 15 mg/kg/day | pIC50 [3]: 5.42 to 5.51 | AUC(0-inf) ([4]; 5 mg/kg): 3870 ng·h/mL | AUC(0-inf) ([4]; 25 mg/kg): 9000 ng·h/mL | NOAEL at 7 days [5]: 10 mg/kg/day
